This note sets out measurements from patent US20250303006A1, “BIOCOMPATIBLE ANTISEPTIC COMPOSITION CONTAINING 9-HYDROXYCALABAXANTHONE AND/OR RELATED XANTHONES” (UNIVERSITAT DE LES ILLES BALEARS, priority 2022, published 2025).

In this assay the test system is P. gingivalis. In words: P. gingivalis culture and proliferation assay (growth rate, live/dead ratio). The class given is cell-based, Porphyromonas gingivalis. Particulars: 0.002% HCX, 10 h. How it is done: Bacterium P. gingivalis (ATCC 33277TM, Manassas, VA) was cultured in brain heart infusion (BHI) broth (Scharlab, Barcelona, Spain), supplemented with 0.5 g/l of L-cysteine hydrochloride (Thermo Fisher Scientific), 5.0 mg/I of hemin (Thermo Fisher Scientific), and 1.0 mg/I of vitamin K (Thermo Fisher Scientific) in anaerobic conditions (10% H2, 10% CO2, and 80% N2) achieved with an anaerobiosis sachet and jar (Oxoid Anaerogen™, Thermo Fisher Scientific) at 37° C. for 24-72 h.
Bacteria P. gingivalis were cultured from existing frozen bacteria in BHI broth. After one night of incubation, 1 ml of bacterial suspension (˜3×10^8 bacteria/ml) was treated with different concentrations of HCX (0.00002, 0.0002, 0.002%) for 10 hours in anaerobic conditions (10% H2, 10% CO2, and 80% N2) at 37° C. At regular intervals (0 h and 10 h), optical density (OD) was measured at 600 nm to determine bacterial proliferation (PowerWave Ht, Biotekinstruments, Winooski, VT). […] The proportion of living bacteria/dead bacteria was determined using the LIVE/DEAD BacLight bacterial viability kit (Invitrogen, Thermo Fisher Scientific, Waltham, MA, USA), following the manufacturer's instructions.
Two different concentrations of HA formulated with HCX (0.025 and 0.05%) were used in the present study. […]

`COc1c(O)cc2oc3cc4c(c(O)c3c(=O)c2c1CC=C(C)C)C=CC(C)(C)O4` [HCX, 9-hydroxycalabaxanthone]: the bacteria eliminated was 100%.
